# Experimental data from patent US11014934B2, “Antiseptic drug” (AO “TATKHIMFARMPREPARATY”, priority 2017, dated 2021).
# How the values were obtained:
# Format in all cases: cell-based
# [1] = system: Staphylococcus aureus ATCC 209p; test: Disinfectant activity in suspension test
# Protocol: To prepare a bacterial suspension of the culture, microorganisms grown in dense nutrient medium for (18-24) hours were washed off with a sterile isotonic sodium chloride solution. The bacterial suspension of each microorganism was brought to a turbidity corresponding to a concentration of 1×10^9 cells/ml, which corresponds to 3 units of McFarland. For experiments with protein loading, a solution of bovine serum albumin (BSA) was added to the bacterial suspension to a final concentration of 0.2%.
# Solutions of compound I, miramistin, and benzalkonium chloride were poured at a working concentration (0.1%, 0.2%) into a 24-well plate of 0.9 ml per well: 0.1 ml of microbial suspension was added to wells with disinfectant solutions and mixed by shaking for several seconds.
# At the end of 1, 5, and 15 minutes of exposure, 0.5 ml of a universal neutralizer was added and mixed by shaking to deactivate the drugs and stop their antimicrobial activity. The neutralizer consisted of tween-80 (Sigma-Aldrich)—3.0 ml, saponin (DIAEM)—3.0 g, histidine—0.1 g, cysteine—0.1 g in 100 ml of phosphate-buffered solution.
# The liquid was inoculated on a dense nutrient medium (Müller-Hinton agar) in 0.1 ml of the mixture, cultivation was carried out (24-48) hours at 37° C. Müller-Hinton broth was prepared from dry media (Mueller Hinton broth, Acumedia, Baltimore), cultivation was carried out on agarized Müller-Hinton broth, which included an additional 2% of agar. The media were autoclaved at 121° C. for 15 minutes.
# After the time required for the cultivation of microorganisms, the results were counted according to the number of colonies grown on the Petri dish. In the absence of growth, the time for culturing microorganisms was increased by a factor of 2 (for example, when the cultivation time was 24 hours, it was left in the thermostat for up to 2 days). The experiment was carried out three times under the same conditions.
# The criterion of efficacy of drugs in suspension is the death of 100% test microorganisms, with a duration of action not more than 30 minutes.
# [2] = system: Escherichia coli CDC F-50; test: Disinfectant activity in contaminated metal surface test
# Protocol: (§1) The preparation of the bacterial suspension was carried out similarly to the procedure for determining the disinfecting activity of compound I in suspension (see example 7). To simulate protein contamination of the metal surface, a BSA solution was added to the bacterial suspension to a final concentration of 0.4%. The surface of the metal table was drawn into squares, the number of which depended on the number of strains studied. The test surface should be clean, intact, sterile. To do this, the table was cleaned with alcohol, and then with sterile water. A microbial suspension in a volume of 0.125 ml was applied to a surface area of 5×5 cm and distributed with a sterile spatula over the entire square area. After the microbial suspension was dried, a 0.5 ml solution of compound I (miramistin and benzalkonium chloride being a control) was uniformly applied to the surface at a working concentration of 0.1 and 0.2% and distributed over the square surface with a sterile spatula, and then kept for 1, 5, and 15 minutes.
# (§2) After the end of exposure, the contaminated surface was thoroughly wiped with a sterile gauze cloth (size 5×5 cm) soaked in 1 ml of a neutralizer solution and the cloth was immersed in 10 ml of sterile physiological saline in a flask, which was shaken for 10 minutes.
# (§3) Plating was carried out as in example 7, in addition to the controls were carried out: • control of the sterility of the surface (before applying the microbial suspension, a metal table was washed off with a sterile swab, followed by plating on a nutrient medium); • control of the vitality of the microorganism (after applying microbial suspension on the metal table, it was washed off with a sterile swab with subsequent plating on the nutrient medium).
# (§4) The contamination density of 1 cm^2 of the surface and the percentage of disinfection were calculated, taking the number of colonies removed from control surfaces as 100%. The criterion for the effectiveness of surface disinfection is not less than 99.99% of the death of test microorganisms, the disinfection time is not more than 120 minutes.
# [3] = system: Staphylococcus aureus ATCC 209p; test: as above; conditions: for Inhibition rate (Mean ± SD) of Staphylococcus aureus ATCC 209p growth: 0.1% solution; for Inhibition rate (M ± SD) Staphylococcus aureus ATCC 209p: 0.2% solution
# Protocol: as §1, §2, §3, §4
# [4] = 0.1% solution, exposure 1 min, +BSA
# [5] = 0.1% solution, exposure 1 min, −BSA
# [6] = 0.1% solution, exposure 5 min, +BSA
# [7] = 0.1% solution, exposure 5 min, −BSA
# [8] = 0.1% solution, exposure 15 min, +BSA
# [9] = 0.1% solution, exposure 15 min, −BSA
# [10] = 0.2% solution, exposure 1 min, +BSA
# [11] = 0.2% solution, exposure 1 min, −BSA
# [12] = 0.2% solution, exposure 5 min, +BSA
# [13] = 0.2% solution, exposure 5 min, −BSA
# [14] = 0.2% solution, exposure 15 min, −BSA
smiles,measurement,setting,value
"CCCCCCCCCCCCCC(=O)NCCC[N+](C)(C)Cc1ccccc1.O.[Cl-] [Miramistin, benzyldimethyl [3-(myristoylamino)propyl]-ammonium chloride monohydrate]",Inhibition rate (M ± SD) Staphylococcus aureus ATCC 209p,[1]; [4],99.99%
same,Inhibition rate (M ± SD) Staphylococcus aureus ATCC 209p,[1]; [5],99.9%
same,Inhibition rate (M ± SD) Staphylococcus aureus ATCC 209p,[1]; [6],99.99%
same,Inhibition rate (M ± SD) Staphylococcus aureus ATCC 209p,[1]; [7],99.99%
same,Inhibition rate (M ± SD) Staphylococcus aureus ATCC 209p,[1]; [8],99.99 ± 0.005%
same,Inhibition rate (M ± SD) Staphylococcus aureus ATCC 209p,[1]; [9],99.99%
same,Inhibition rate (M ± SD) Staphylococcus aureus ATCC 209p,[1]; [10],99.99%
same,Inhibition rate (M ± SD) Staphylococcus aureus ATCC 209p,[1]; [11],99.9%
same,Inhibition rate (M ± SD) Staphylococcus aureus ATCC 209p,[1]; [12],99.99 ± 0.005%
same,Inhibition rate (M ± SD) Staphylococcus aureus ATCC 209p,[1]; [13],99.99%
same,Inhibition rate (M ± SD) Staphylococcus aureus ATCC 209p,"[1]; 0.2% solution, exposure 15 min, +BSA, listed as miramistin, monohydrate",< 100%
same,Inhibition rate (M ± SD) Staphylococcus aureus ATCC 209p,"[1]; 0.2% solution, exposure 15 min, +BSA, monohydrate",99.99 ± 0.005%
same,Inhibition rate (M ± SD) Staphylococcus aureus ATCC 209p,[1]; [14],100%
same,Inhibition rate (M ± SD) of Escherichia coli CDC F-50 growth,[2]; [4],99.75 ± 0.005%
same,Inhibition rate (M ± SD) of Escherichia coli CDC F-50 growth,[2]; [5],99.75 ± 0.00%
same,Inhibition rate (M ± SD) of Escherichia coli CDC F-50 growth,[2]; [6],99.97 ± 0.005%
same,Inhibition rate (M ± SD) of Escherichia coli CDC F-50 growth,[2]; [7],99.86 ± 0.005%
same,Inhibition rate (M ± SD) of Escherichia coli CDC F-50 growth,[2]; [8],99.99 ± 0.005%
same,Inhibition rate (M ± SD) of Escherichia coli CDC F-50 growth,[2]; [9],99.99 ± 0.005%
same,Inhibition rate (M ± SD) of Escherichia coli CDC F-50 growth,[2]; [10],99.83 ± 0.005%
same,Inhibition rate (M ± SD) of Escherichia coli CDC F-50 growth,[2]; [11],99.98 ± 0.005%
same,Inhibition rate (M ± SD) of Escherichia coli CDC F-50 growth,[2]; [12],99.99 ± 0.005%
same,Inhibition rate (M ± SD) of Escherichia coli CDC F-50 growth,[2]; [13],99.99 ± 0.005%
same,Inhibition rate (M ± SD) of Escherichia coli CDC F-50 growth,"[2]; 0.2% solution, exposure 15 min, +BSA",99.99 ± 0.005%
same,Inhibition rate (M ± SD) of Escherichia coli CDC F-50 growth,[2]; [14],100%
same,time after application to effective inhibition of bacterial growth,"[2]; Escherichia coli CDC F-50, 0.1% solutions",15 min
same,Inhibition rate (Mean ± SD) of Staphylococcus aureus ATCC 209p growth,"[3]; exposure 1 min, +BSA",99.98 ± 0.00%
same,Inhibition rate (Mean ± SD) of Staphylococcus aureus ATCC 209p growth,"[3]; exposure 1 min, −BSA",99.98 ± 0.005%
same,Inhibition rate (Mean ± SD) of Staphylococcus aureus ATCC 209p growth,"[3]; exposure 5 min, +BSA",99.99%
same,Inhibition rate (Mean ± SD) of Staphylococcus aureus ATCC 209p growth,"[3]; exposure 5 min, −BSA",99.99%
same,Inhibition rate (Mean ± SD) of Staphylococcus aureus ATCC 209p growth,"[3]; exposure 15 min, +BSA",99.99%
same,Inhibition rate (Mean ± SD) of Staphylococcus aureus ATCC 209p growth,"[3]; exposure 15 min, −BSA",99.99%
same,Inhibition rate (M ± SD) Staphylococcus aureus ATCC 209p,"[3]; exposure 1 min, +BSA",99.98 ± 0.00%
same,Inhibition rate (M ± SD) Staphylococcus aureus ATCC 209p,"[3]; exposure 1 min, −BSA",99.98 ± 0.005%
same,Inhibition rate (M ± SD) Staphylococcus aureus ATCC 209p,"[3]; exposure 5 min, +BSA",99.99%
same,Inhibition rate (M ± SD) Staphylococcus aureus ATCC 209p,"[3]; exposure 5 min, −BSA",99.99%
same,Inhibition rate (M ± SD) Staphylococcus aureus ATCC 209p,"[3]; exposure 15 min, +BSA",99.99%
same,Inhibition rate (M ± SD) Staphylococcus aureus ATCC 209p,"[3]; exposure 15 min, −BSA",99.99%
same,time after application to effective inhibition of bacterial growth (99.99%),"[3]; Staphylococcus aureus ATCC 209p, 0.1% solutions",5 min
